Measured values taken from patent US20250368652A1, “MICROBIOCIDAL BICYCLIC HETEROCYCLIC CARBOXAMIDE DERIVATIVES” (SYNGENTA CROP PROTECTION AG, priority 2022, published 2025).

Legend:
[1] = system: Botryotinia fuckeliana (Botrytis cinerea); assay: Botryotinia fuckeliana (Botrytis cinerea) / liquid culture (gray mould); assay type: cell-based; conditions: liquid culture (Vogels broth), growth inhibition photometrically 3-4 days after application, compared to untreated control
Experimental: (§1) Mycelia fragments or conidia suspensions of a fungus prepared either freshly from liquid cultures of the fungus or from cryogenic storage, are directly mixed into nutrient broth. DMSO solutions of the test compound (max. 10 mg/mL) are diluted with 0.025% Tween20 by a factor of 50 and 10 μL of this solution is pipetted into a microtiter plate (96-well format). The nutrient broth containing the fungal spores/mycelia fragments is then added to give an end concentration of the tested compound. The test plates are incubated in the dark at 24° C. and 96% relative humidity. The inhibition of fungal growth is determined photometrically after 2 to 7 days, depending on the pathosystem, and percent antifungal activity relative to the untreated check is calculated. Conidia of the fungus from cryogenic storage are directly mixed into nutrient broth (Vogels broth). After placing a (DMSO) solution of test compound into a microtiter plate (96-well format), the nutrient broth containing the fungal spores is added. The test plates are incubated at 24° C. and the inhibition of growth is determined photometrically 3-4 days after application.

Phytophthora infestans = assay type: in vivo; conditions: 200 ppm; tomato leaf disks, preventative, inoculated 1 day after application; compared to untreated control
[2] = system: Magnaporthe grisea (Pyricularia oryzae); assay type: in vivo; conditions: 200 ppm; rice leaf segments cv. Ballila, preventative, inoculated 2 days after application; compared to untreated control
[3] = system: Glomerella lagenarium (Colletotrichum lagenarium); assay: Glomerella lagenarium (Colletotrichum lagenarium) / liquid culture (anthracnose); assay type: cell-based; conditions: Colletotrichum orbiculare, liquid culture (PDB), growth inhibition photometrically 3-4 days after application, compared to untreated control
Experimental: as §1, with “nutrient broth (PDB potato dextrose broth). After” for “nutrient broth (Vogels broth). After”, “growth is measured photometrically 3-4” for “growth is determined photometrically 3-4”

[4] = system: Blumeria graminis f. sp. tritici (Erysiphe graminis f. sp. tritici); assay: Blumeria graminis f. sp. tritici / wheat / leaf disc preventative (powdery mildew on wheat); assay type: in vivo; conditions: 200 ppm, wheat leaf segments cv. Kanzler, inoculated 1 day after application, compared to untreated control
Experimental: Leaf disks or leaf segments of various plant species are cut from plants grown in a greenhouse. The cut leaf disks or segments are placed in multiwell plates (24-well format) onto water agar. The leaf disks are sprayed with a test solution before (preventative) or after (curative) inoculation. Compounds to be tested are prepared as DMSO solutions (max. 10 mg/mL) which are diluted to the appropriate concentration with 0.025% Tween20 just before spraying. The inoculated leaf disks or segments are incubated under defined conditions (temperature, relative humidity, light, etc.) according to the respective test system. A single evaluation of disease level is carried out 3 to 14 days after inoculation, depending on the pathosystem. Percent disease control relative to the untreated check leaf disks or segments is then calculated. Wheat leaf segments cv. Kanzler are placed on agar in a multiwell plate (24-well format) and sprayed with the formulated test compound diluted in water. […] The inoculated leaf disks are incubated at 20° C. and 60% rh under a light regime of 24 h darkness followed by 12 h light/12 h darkness in a climate chamber and the activity of a compound is assessed as percent disease control compared to untreated when an appropriate level of disease damage appears on untreated check leaf segments (6-8 days after application).

[5] = system: Phaeosphaeria nodorum (Septoria nodorum); assay: Phaeosphaeria nodorum (Septoria nodorum) / wheat / leaf disc preventative (glume blotch); assay type: in vivo; conditions: 200 ppm, wheat leaf segments cv. Kanzler, inoculated 2 days after application, compared to untreated control
Experimental: Leaf disks or leaf segments of various plant species are cut from plants grown in a greenhouse. The cut leaf disks or segments are placed in multiwell plates (24-well format) onto water agar. The leaf disks are sprayed with a test solution before (preventative) or after (curative) inoculation. Compounds to be tested are prepared as DMSO solutions (max. 10 mg/mL) which are diluted to the appropriate concentration with 0.025% Tween20 just before spraying. The inoculated leaf disks or segments are incubated under defined conditions (temperature, relative humidity, light, etc.) according to the respective test system. A single evaluation of disease level is carried out 3 to 14 days after inoculation, depending on the pathosystem. Percent disease control relative to the untreated check leaf disks or segments is then calculated. Wheat leaf segments cv. Kanzler are placed on agar in a multiwell plate (24-well format) and sprayed with the formulated test compound diluted in water. […] The inoculated test leaf disks are incubated at 20° C. and 75% rh under a light regime of 12 h light/12 h darkness in a climate cabinet and the activity of a compound is assessed as percent disease control compared to untreated when an appropriate level of disease damage appears in untreated check leaf disks (5-7 days after application).

[6] = system: Puccinia recondita f. sp. tritici; assay: Puccinia recondita f. sp. tritici / wheat / leaf disc curative (brown rust); assay type: in vivo; conditions: 200 ppm, wheat leaf segments cv. Kanzler, applied 1 day after inoculation, compared to untreated control

| SMILES | inhibition of growth at 20 ppm [1] | inhibition of growth at 20 ppm [3] | also measured |
| --- | --- | --- | --- |
| O=C(NCC(F)c1ccc(Cl)cc1Cl)c1c(Oc2cccc(C3CC3)c2)cnc2c(Cl)cnn12 (racemic) [Compound P-1.9, 3-chloro-6-(3-cyclopropylphenoxy)-N-[2-(2,4-dichlorophenyl)-2-fluoro-ethyl]pyrazolo[1,5-a]pyrimidine-7-carboxamide] | ≥ 80% |  | control of Phytophthora infestans (Phytophthora infestans): at least 80%; control of Magnaporthe grisea [2]: at least 80% |
| O=C(NC[C@H](F)c1ccc(Cl)cc1Cl)c1c(Oc2cccc(C3CC3)c2)cnc2c(Cl)cnn12 (single isomer, unassigned) [Compound P-1.16] | ≥ 80% | ≥ 80% | control of Blumeria graminis f. sp. tritici [4]: at least 80%; control of Phaeosphaeria nodorum [5]: at least 80% |
| O=C(NCC(F)c1ccc(Cl)cc1Cl)c1c(Oc2cccc(C3CC3)c2)cnc2nccn12 (stereo not shown) [Compound P-1.1, 6-(3-cyclopropylphenoxy)-N-[2-(2,4-dichlorophenyl)-2-fluoro-ethyl]imidazo[1,2-a]pyrimidine-5-carboxamide] | ≥ 80% | ≥ 80% |  |
| O=C(NCC(F)c1ccc(Cl)cc1Cl)c1c(Oc2cccc(C3CC3)c2)cnc2ncnn12 (stereo not shown) [Compound P-1.2, 6-(3-cyclopropylphenoxy)-N-[2-(2,4-dichlorophenyl)-2-fluoro-ethyl]-[1,2,4]triazolo[1,5-a]pyrimidine-7-carboxamide] | ≥ 80% | ≥ 80% |  |
| O=C(NCC(F)c1ccc(Cl)cc1Cl)c1c(Oc2cccc(C3CC3)c2)cnc2ccnn12 (stereo not shown) [Compound P-1.3, 6-(3-cyclopropylphenoxy)-N-[2-(2,4-dichlorophenyl)-2-fluoro-ethyl]pyrazolo[1,5-a]pyrimidine-7-carboxamide] | ≥ 80% | ≥ 80% |  |
| O=C(NCCc1ccc(Cl)cc1Cl)c1c(Oc2cccc(C3CC3)c2)cnc2ncnn12 [Compound P-1.5, 6-(3-cyclopropylphenoxy)-N-[2-(2,4-dichlorophenyl)ethyl]-[1,2,4]triazolo[1,5-a]pyrimidine-7-carboxamide] | ≥ 80% |  |  |
| O=C(NCCc1ccc(Cl)cc1Cl)c1c(Oc2cccc(C3CC3)c2)cnc2nccn12 [Compound P-1.6, 6-(3-cyclopropylphenoxy)-N-[2-(2,4-dichlorophenyl)ethyl]imidazo[1,2-a]pyrimidine-5-carboxamide] |  | ≥ 80% |  |
| Cc1cn2c(C(=O)NCC(F)c3ccc(Cl)cc3Cl)c(Oc3cccc(C4CC4)c3)cnc2n1 (stereo not shown) [Compound P-1.7, 6-(3-cyclopropylphenoxy)-N-[2-(2,4-dichlorophenyl)-2-fluoro-ethyl]-2-methyl-imidazo[1,2-a]pyrimidine-5-carboxamide] | ≥ 80% | ≥ 80% |  |
| N#Cc1cc2ncc(Oc3cccc(C4CC4)c3)c(C(=O)NCC(F)c3ccc(Cl)cc3Cl)n2n1 (stereo not shown) [Compound P-1.8, 2-cyano-6-(3-cyclopropylphenoxy)-N-[2-(2,4-dichlorophenyl)-2-fluoro-ethyl]pyrazolo[1,5-a]pyrimidine-7-carboxamide] | ≥ 80% | ≥ 80% | control of Puccinia recondita f. sp. tritici [6]: at least 80% |
| O=C(NCC(F)c1ccc(Cl)cc1Cl)c1c(Oc2cccc(C3CC3)c2)cnc2cc(F)nn12 (stereo not shown) [Compound P-1.10, 6-(3-cyclopropylphenoxy)-N-[2-(2,4-dichlorophenyl)-2-fluoro-ethyl]-2-fluoro-pyrazolo[1,5-a]pyrimidine-7-carboxamide] | ≥ 80% | ≥ 80% |  |
| Cc1cnn2c(C(=O)NCC(F)c3ccc(Cl)cc3Cl)c(Oc3cccc(C4CC4)c3)cnc12 (stereo not shown) [Compound P-1.11, 6-(3-cyclopropylphenoxy)-N-[2-(2,4-dichlorophenyl)-2-fluoro-ethyl]-3-methyl-pyrazolo[1,5-a]pyrimidine-7-carboxamide] | ≥ 80% | ≥ 80% |  |
| O=C(NCC(F)c1ccc(Cl)cc1Cl)c1c(Oc2cccc(C3CC3)c2)cnc2cc(Cl)nn12 (stereo not shown) [Compound P-1.12, 2-chloro-6-(3-cyclopropylphenoxy)-N-[2-(2,4-dichlorophenyl)-2-fluoro-ethyl]pyrazolo[1,5-a]pyrimidine-7-carboxamide] | ≥ 80% | ≥ 80% |  |
| Cc1nc2ncc(Oc3cccc(C4CC4)c3)c(C(=O)NCC(F)c3ccc(Cl)cc3Cl)n2n1 (stereo not shown) [Compound P-1.14, 6-(3-cyclopropylphenoxy)-N-[2-(2,4-dichlorophenyl)-2-fluoro-ethyl]-2-methyl-[1,2,4]triazolo[1,5-a]pyrimidine-7-carboxamide] | ≥ 80% | ≥ 80% |  |
| O=C(NCC(F)c1ccc(Cl)cc1Cl)c1c(Oc2cccc(C3CC3)c2)cnn2nccc12 (stereo not shown) [Compound P-1.15, 5-(3-cyclopropylphenoxy)-N-[2-(2,4-dichlorophenyl)-2-fluoro-ethyl]pyrazolo[1,5-b]pyridazine-4-carboxamide] | ≥ 80% | ≥ 80% |  |
| COc1nn2c(C(=O)NCC(F)c3ccc(Cl)cc3Cl)c(Oc3cccc(C4CC4)c3)cnc2c1C#N (stereo not shown) [Compound P-1.18, 3-cyano-6-(3-cyclopropylphenoxy)-N-[2-(2,4-dichlorophenyl)-2-fluoro-ethyl]-2-methoxy-pyrazolo[1,5-a]pyrimidine-7-carboxamide] | ≥ 80% |  |  |
| Cc1nn2c(C(=O)NCC(F)c3ccc(Cl)cc3Cl)c(Oc3cccc(C4CC4)c3)cnc2c1Cl (stereo not shown) [Compound P-1.19, 3-chloro-6-(3-cyclopropylphenoxy)-N-[2-(2,4-dichlorophenyl)-2-fluoro-ethyl]-2-methyl-pyrazolo[1,5-a]pyrimidine-7-carboxamide] | ≥ 80% |  |  |
| Cc1nn2c(C(=O)NCC(F)c3ccc(Cl)cc3Cl)c(Oc3cccc(C4CC4)c3)cnc2c1C#N (stereo not shown) [Compound P-1.20, 3-cyano-6-(3-cyclopropylphenoxy)-N-[2-(2,4-dichlorophenyl)-2-fluoro-ethyl]-2-methyl-pyrazolo[1,5-a]pyrimidine-7-carboxamide] | ≥ 80% | ≥ 80% |  |
